Measured values as given in US7829528B2, “Compositions and methods for treating STAT-6 associated diseases or conditions” (The Rockefeller University, priority 2004, dated 2010).
Where no end group is shown, it is not given here.

Tests used:
[1] = test system: CD4+ lymphocytes expressing IL-4; experiment: Intracellular cytokine staining of CD4+ T cells producing IL-4 (flow cytometry); assay type: cell-based, BALB/c mice; settings: ovalbumin + 100 μM peptide, ovalbumin alone 90.21 ± 8.02
Procedure: (§1) The levels of mRNA encoding IL-4, IL-13 and IFN-gamma were also evaluated by semiquantitative RT-PCR analysis. Ovalbumin-induced expression of both IL-4 and IL-13 mRNA was inhibited in splenocytes cultured with the STAT-6-IP and not the STAT-6-CP. […] The number of CD4+ T cells producing IL-4 was also quantified by intracellular cytokine staining. When splenocytes from ovalbumin-sensitized mice were cultured with ovalbumin, there was a significant increase in the number of CD4+ lymphocytes expressing IL-4 (Table 4). The increase in IL-4 expression was abrogated in splenocytes cultured with ovalbumin in the presence of the STAT-6-IP, while the STAT-6-CP had no effect.
BALB/c mice were sensitized systemically by two weekly i.p. injections of 0.025% ovalbumin mixed with 4 mg/mL Al(OH)3. One week after the second sensitization, mice were sacrificed and spleens harvested. A single cell suspension of splenocytes (5×10^6 cells/mL) was cultured in RPMI-1640 medium containing 10% heat-inactivated fetal bovine serum and 2 mM L-glutamine, 50 μM 2-mercaptoethanol, 100 U/mL penicillin, and 100 μg/mL streptomycin sulfate. […] After four days, culture supernatants were harvested to quantify cytokine production by ELISA. […] Cytokine expression was monitored by flow cytometry and analyzed using CELLQUEST™ software (Becton Dickinson). […]

IL-4 = experiment: Ovalbumin-induced IL-4 production by splenocytes from ovalbumin-sensitized mice (ELISA); assay type: cell-based, BALB/c mice; settings: ovalbumin 100 μg/mL + 100 μM peptide added daily, four days; ovalbumin alone 309.3 ± 49.6
Procedure: (§2) Splenocytes from ovalbumin-sensitized mice were cultured for four days with no antigen, with ovalbumin alone, or with ovalbumin plus the STAT-6-IP or a STAT-6 Tyr-641 mutant (STAT-6-CP; Tyr-Ala-Arg-Ala-Ala-Ala-Arg-Gln-Ala-Arg-Ala-Gly-Arg-Gly-Phe-Val-Ser-Thr-Thr; SEQ ID NO:8). The STAT-6-IP and STAT-6-CP were added to splenocyte cultures daily. Treatment with the STAT-6-IP, but not the STAT-6-CP, reduced the supernatant levels of both IL-4 and IL-13 (Table 3).
(§3) BALB/c mice were sensitized systemically by two weekly i.p. injections of 0.025% ovalbumin mixed with 4 mg/mL Al(OH)3. One week after the second sensitization, mice were sacrificed and spleens harvested. A single cell suspension of splenocytes (5×10^6 cells/mL) was cultured in RPMI-1640 medium containing 10% heat-inactivated fetal bovine serum and 2 mM L-glutamine, 50 μM 2-mercaptoethanol, 100 U/mL penicillin, and 100 μg/mL streptomycin sulfate. Splenocytes were cultured for four days in the presence or absence of 100 μg/mL ovalbumin, either alone or with 100 μM STAT-6-IP or STAT-6-CP, which were added daily. After four days, culture supernatants were harvested to quantify cytokine production by ELISA. […] Cytokine expression was monitored by flow cytometry and analyzed using CELLQUEST™ software (Becton Dickinson). […]

IL-13 mRNA = experiment: Semiquantitative RT-PCR of IL-13 mRNA in splenocytes; assay type: cell-based, BALB/c mice; settings: splenocytes cultured with ovalbumin plus peptide
Procedure: as §1
Reverse transcriptase (RT)-PCR was used to monitor expression of mRNAs encoding IL-4, IL-13 and IFN-gamma. Materials for RNA extraction and RT-PCR were purchased from INVITROGEN™ Canada (Burlington, Ontario). Total RNA was extracted from splenocytes, treated with DNAse, and 1 μg of RNA was reverse transcribed into cDNA using SUPERSCRIPT™ II reverse transcriptase. […] PCR products were resolved by gel electrophoresis and visualized and quantified on a FLUORCHEM™ 8000 Imaging System (Alpha Innotech, San Leandro, Calif.) using ALPHAEASE™ software (Alpha Innotech). […]

[2] = test system: ovalbumin-sensitized mice; experiment: Histology of lungs; assay type: in vivo, BALB/c mice; settings: compared with ovalbumin-sensitized and -challenged animals
Procedure: Histology was performed according to established methods (McCusker, et al. (2002) supra). Briefly, lungs were slowly inflated with 1 mL of formalin, isolated, and placed entirely in formalin. The specimens were embedded in paraffin and […] sections prepared. Slides were stained with Giemsa and examined under standard light microscopy.

IFN-gamma = experiment: Ovalbumin-induced IFN-gamma production by splenocytes from ovalbumin-sensitized mice (ELISA); assay type: cell-based, BALB/c mice; settings: ovalbumin 100 μg/mL + 100 μM peptide added daily, four days; ovalbumin alone 567.9 ± 93.1
Procedure: as §2, §3

IL-13 = experiment: Ovalbumin-induced IL-13 production by splenocytes from ovalbumin-sensitized mice (ELISA); assay type: cell-based, BALB/c mice; settings: ovalbumin 100 μg/mL + 100 μM peptide added daily, four days; ovalbumin alone 2585.4 ± 165.7
Procedure: as §2, §3

YARAAARQARAGRGFVSTT [STAT-6-CP, STAT-6 Tyr-641 mutant, control peptide]
Percentage of IL4 positive cells ± SEM [1]: 92.13 ± 5.62 Percentage | IL-4 (pg/mL ± SEM), culture supernatant (IL-4): 212.9 ± 4.1 pg/mL | Inhibition of ovalbumin-induced expression of IL-13 mRNA (IL-13 mRNA): not | Ovalbumin-induced lung inflammation, including airway eosinophilia (histology) [2]: did not differ | IFN-gamma (pg/mL ± SEM), culture supernatant (IFN-gamma): 513.6 ± 118.3 pg/mL | IL-13 (pg/mL ± SEM), culture supernatant (IL-13): 2136.2 ± 94.7 pg/mL
